Data on 2 molecules can be found in ChEMBL document CHEMBL4184182, “Studies on interactions of carbazole derivatives with DNA, cell image, and cytotoxicity” (Bioorg Med Chem, 2018).

Calls of active or inactive are those of the source. The calls are words filed in the database; no cut-off is given here.

The test system of data set [1] is dsDNA. Briefly: Binding affinity to 26-mer duplex DNA (unknown origin) assessed as hyperchromicity at 10 uM after 5 mins by UV-Visible absorbance titration method. The class given is nucleic-acid assay.
In data set [2] the test system is Quadruplex DNA. Briefly: Binding affinity to c-Kit G-quadruplex DNA (unknown origin) assessed as hyperchromicity at 10 uM after 5 mins by UV-Visible absorbance titration method. The class given is nucleic-acid assay.
Data set [3] relates to Quadruplex DNA. Briefly: Binding affinity to Bcl2 G-quadruplex DNA (unknown origin) assessed as hyperchromicity at 10 uM after 5 mins by UV-Visible absorbance titration method. The class given is nucleic-acid assay.
For data set [4], the system named is Quadruplex DNA. As to the kind of experiment: Binding affinity to c-Myc G-quadruplex DNA (unknown origin) assessed as hyperchromicity at 10 uM after 5 mins by UV-Visible absorbance titration method. It is filed as nucleic-acid assay.
Data set [5] relates to Quadruplex DNA. Briefly: Binding affinity to human telomeric G-quadruplex DNA assessed as hyperchromicity at 10 uM after 5 mins in presence of potassium ion by UV-Visible absorbance titration method. The class given is nucleic-acid assay.
The subject of data set [6] is Quadruplex DNA. Briefly: Binding affinity to human telomeric G-quadruplex DNA assessed as red shift at 10 uM after 5 mins in presence of potassium ion by UV-Visible absorbance titration method. It is filed as nucleic-acid assay.
Data set [7] concerns Calf thymus DNA. Briefly: Binding affinity to calf thymus DNA assessed as absorption maximum at 5 uM after 5 mins by fluorescence titration method (reference value: 453 nanometer). As to conditions: Bos taurus. It is filed as nucleic-acid assay.
Data set [8] deals with dsDNA. Briefly: Binding affinity to 26-mer duplex DNA (unknown origin) assessed as emission maximum at 5 uM after 5 mins by fluorescence titration method (reference value: 584 nanometer). It is filed as nucleic-acid assay.
Data set [9] has as its system Quadruplex DNA. Briefly: Binding affinity to c-Myc G-quadruplex DNA (unknown origin) assessed as emission maximum at 5 uM after 5 mins by fluorescence titration method (reference value: 584 nanometer). The class given is nucleic-acid assay.
The subject of data set [10] is Quadruplex DNA. Briefly: Binding affinity to human telomeric G-quadruplex DNA assessed as emission maximum at 5 uM after 5 mins in presence of sodium ion by fluorescence titration method (reference value: 584 nanometer). It is filed as nucleic-acid assay.
The subject of data set [11] is dsDNA. As to the kind of experiment: Binding affinity to 26-mer duplex DNA (unknown origin) assessed as compound fluorescence life time at 5 uM after 5 mins by fluorescence titration method (reference value: 0.192 nanoseconds). It is filed as nucleic-acid assay.
Data set [12] relates to Quadruplex DNA. As to the kind of experiment: Binding affinity to Bcl2 G-quadruplex DNA (unknown origin) assessed as compound fluorescence life time at 5 uM after 5 mins by fluorescence titration method (reference value: 0.192 nanoseconds). The class given is nucleic-acid assay.
The subject of data set [13] is HepG2. Briefly: Induction of morphological changes in human HepG2 cells assessed as cellular clumping at 5 uM after 24 hrs. It is filed as functional, cell-based.
For data set [14], the system named is HepG2. As to the kind of experiment: Induction of morphological changes in human HepG2 cells assessed as debris formation at 5 uM after 24 hrs. The class given is functional, cell-based.
A short description of data set [15]: Drug uptake in human HepG2 cell nucleus at 3 uM after 30 mins by H33258.staining based confocal microscopic method. The class given is ADME, subcellular. As to conditions: hepg2, 0.5 h.
The nature of data set [16]: Drug uptake in RNase-A treated human HepG2 cell cytoplasm at 3 uM after 30 mins by H33258.staining based confocal microscopic method. The class given is ADME, subcellular. The note with it: hepg2, 0.5 h.
The subject of data set [17] is Calf thymus DNA. As to the kind of experiment: Binding affinity to calf thymus DNA assessed as hyperchromicity at 15 uM after 5 mins by UV-Visible absorbance titration method. It is filed as nucleic-acid assay. As to conditions: Bos taurus.
Data set [18] concerns Quadruplex DNA. Briefly: Binding affinity to Bcl2 G-quadruplex DNA (unknown origin) assessed as hyperchromicity at 15 uM after 5 mins by UV-Visible absorbance titration method. The class given is nucleic-acid assay.
Data set [19] concerns Quadruplex DNA. Briefly: Binding affinity to human telomeric G-quadruplex DNA assessed as hyperchromicity at 15 uM after 5 mins in presence of sodium ion by UV-Visible absorbance titration method. It is filed as nucleic-acid assay.
Data set [20] relates to Calf thymus DNA. As to the kind of experiment: Binding affinity to calf thymus DNA assessed as red shift at 15 uM after 5 mins by UV-Visible absorbance titration method. The class given is nucleic-acid assay. As to conditions: Bos taurus.
Data set [21] has as its system Quadruplex DNA. Briefly: Binding affinity to Bcl2 G-quadruplex DNA (unknown origin) assessed as red shift at 15 uM after 5 mins by UV-Visible absorbance titration method. The class given is nucleic-acid assay.
For data set [22], the system named is Quadruplex DNA. As to the kind of experiment: Binding affinity to human telomeric G-quadruplex DNA assessed as red shift at 15 uM after 5 mins in presence of potassium ion by UV-Visible absorbance titration method. It is filed as nucleic-acid assay.
The subject of data set [23] is Quadruplex DNA. As to the kind of experiment: Binding affinity to human telomeric G-quadruplex DNA assessed as absorption maximum at 5 uM after 5 mins in presence of sodium ion by fluorescence titration method (reference value: 405 nanometer). The class given is nucleic-acid assay.
The subject of data set [24] is Quadruplex DNA. As to the kind of experiment: Binding affinity to c-Kit G-quadruplex DNA (unknown origin) assessed as emission maximum at 5 uM after 5 mins by fluorescence titration method (reference value: 559 nanometer). The class given is nucleic-acid assay.
The test system of data set [25] is Quadruplex DNA. Briefly: Binding affinity to Bcl2 G-quadruplex DNA (unknown origin) assessed as emission maximum at 5 uM after 5 mins by fluorescence titration method (reference value: 559 nanometer). It is filed as nucleic-acid assay.
In data set [26] the test system is Quadruplex DNA. As to the kind of experiment: Binding affinity to c-Myc G-quadruplex DNA (unknown origin) assessed as emission maximum at 5 uM after 5 mins by fluorescence titration method (reference value: 559 nanometer). The class given is nucleic-acid assay.
Data set [27] relates to Quadruplex DNA. As to the kind of experiment: Binding affinity to human telomeric G-quadruplex DNA assessed as emission maximum at 5 uM after 5 mins in presence of potassium ion by fluorescence titration method (reference value: 559 nanometer). The class given is nucleic-acid assay.
Data set [28] concerns Quadruplex DNA. As to the kind of experiment: Binding affinity to human telomeric G-quadruplex DNA assessed as emission maximum at 5 uM after 5 mins in presence of sodium ion by fluorescence titration method (reference value: 559 nanometer). It is filed as nucleic-acid assay.
Data set [29] deals with dsDNA. As to the kind of experiment: Binding affinity to 26-mer duplex DNA (unknown origin) assessed as compound fluorescence life time at 5 uM after 5 mins by fluorescence titration method (reference value: 3.626 nanoseconds). It is filed as nucleic-acid assay.
Data set [30] deals with Quadruplex DNA. As to the kind of experiment: Binding affinity to c-Kit G-quadruplex DNA (unknown origin) assessed as compound fluorescence life time at 5 uM after 5 mins by fluorescence titration method (reference value: 3.626 nanoseconds). It is filed as nucleic-acid assay.
Data set [31] has as its system Quadruplex DNA. Briefly: Binding affinity to Bcl2 G-quadruplex DNA (unknown origin) assessed as compound fluorescence life time at 5 uM after 5 mins by fluorescence titration method (reference value: 3.626 nanoseconds). It is filed as nucleic-acid assay.
In data set [32] the test system is Quadruplex DNA. Briefly: Binding affinity to c-Myc G-quadruplex DNA (unknown origin) assessed as compound fluorescence life time at 5 uM after 5 mins by fluorescence titration method (reference value: 3.626 nanoseconds). It is filed as nucleic-acid assay.
Data set [33] deals with Quadruplex DNA. Briefly: Binding affinity to human telomeric G-quadruplex DNA assessed as compound fluorescence life time at 5 uM after 5 mins in presence of sodium ion by fluorescence titration method (reference value: 3.626 nanoseconds). It is filed as nucleic-acid assay.
Data set [34] can be described thus: Selectivity ratio of DC50 for 26-mer duplex DNA (unknown origin) to DC50 for human telomeric G-quadruplex DNA in presence of sodium ion.
The test system of data set [35] is Quadruplex DNA. Briefly: Binding affinity to human telomeric G-quadruplex DNA assessed as enhanced fluorescence time at 5 uM after 5 mins in presence of sodium ion by fluorescence titration assay relative to control. The class given is nucleic-acid assay.
Data set [36] deals with Quadruplex DNA. Briefly: Binding affinity to human telomeric G-quadruplex DNA assessed as enhanced fluorescence ratio at 5 uM after 5 mins in presence of potassium ion by fluorescence titration assay relative to control. The class given is nucleic-acid assay.
In data set [37] the test system is HepG2. Briefly: Induction of morphological changes in human HepG2 cells assessed as cellular clumping at 10 uM after 24 hrs. It is filed as functional, cell-based.
Data set [38] relates to HepG2. Briefly: Induction of morphological changes in human HepG2 cells assessed as debris formation at 10 uM after 24 hrs. The class given is functional, cell-based.
A short description of data set [39]: Drug uptake in human HepG2 cell cytoplasm at 10 uM after 2.5 hrs by confocal microscopic method. The class given is ADME, subcellular. As to conditions: hepg2, 2.5 h.

Regarding `CCn1c2ccccc2c2cc(/C=C/c3sc4ccccc4[n+]3CC)ccc21.[I-]`, the Activity worked out at 24.6% in the data set on dsDNA [1]; 55.1% with Quadruplex DNA [2]; 52.6% in the data set on Quadruplex DNA [3]; 55.6% in the data set with Quadruplex DNA [4]; 41.1% in the data set on Quadruplex DNA [5]; 21 nm in the data set on Quadruplex DNA [6]. Moreover, the Activity in the data set on Calf thymus DNA [7] came out at 477 nm; in the data set with dsDNA [8], 568 nm; in the data set on Quadruplex DNA [9], 581 nm; in the data set on Quadruplex DNA [10] it was 578 nm. Also, the Time stood at 2.69 nanoseconds with dsDNA [11] and 2.17 nanoseconds in the data set with Quadruplex DNA [12]. The result in the data set on HepG2 [13] and with HepG2 [14] was Active. For the same molecule, the Drug uptake result in data set [15] and in data set [16] was “Active” each time.

With `CCn1c2ccccc2c2cc(/C=C(\C#N)c3ccc[n+](C)c3)ccc21.[I-]`, the Activity in the data set with Calf thymus DNA [17] was determined as 39.4%; in the data set on Quadruplex DNA [18], 42.7%; in the data set with Quadruplex DNA [19], 37.9%; with Calf thymus DNA [20] it was 23 nm; in the data set on Quadruplex DNA [21], 29 nm; with Quadruplex DNA [22], 23 nm. In addition, the Activity in the data set with Quadruplex DNA [23] worked out at 422 nm; in the data set on Quadruplex DNA [24] it was 550 nm; in the data set on Quadruplex DNA [25] it was 541 nm; in the data set with Quadruplex DNA [26] it was 547 nm; in the data set with Quadruplex DNA [27] it was 545 nm; with Quadruplex DNA [28] it was 545 nm. Moreover, the Time in the data set with dsDNA [29] was 2.43 nanoseconds; in the data set with Quadruplex DNA [30], 7.04 nanoseconds; in the data set with Quadruplex DNA [31], 6.55 nanoseconds; in the data set on Quadruplex DNA [32], 4.12 nanoseconds; in the data set on Quadruplex DNA [33] it was 7.25 nanoseconds. Besides, in data set [34], the Selectivity ratio was 1.33. In addition, the fold change (FC) in the data set on Quadruplex DNA [35] was in the range of 11.2 to 20.6. In the data set with Quadruplex DNA [36], the Ratio is more than 6. The result in the data set on HepG2 [37] and with HepG2 [38] was Active. Moreover, the Drug uptake entry in data set [39] was “Active”.
